Test [1] deals with human full-length recombinant HPK1 (Homo sapiens (Human), UniProt Q92918). Nature of the test: HPK1 biochemical enzyme assay, microfluidic mobility shift assay (MSA). Particulars: mobility shift assay; 75 μM ATP; Morrison equation, tight-binding competitive inhibition; read-out: HPK1 Enzyme Assay_Ki. The method, then: HPK1 enzyme inhibition was measured using a microfluidic mobility shift assay (MSA). […] The reactions were conducted for 60 min at 37° C., stopped by the addition of 50 μL of 0.015 M EDTA, pH 8, and the extent of reactions (˜15-20% conversion with no inhibitor) was determined after electrophoretic separation of the fluorescently labeled peptide substrate and phosphorylated product on an LabChip EZ Reader II (PerkinElmer, Inc., Waltham, Mass.). […]

Test [2] concerns phospho-SLP-76 (Ser376) in Jurkat cells. The test is described as follows: Phospho-SLP-76 (Ser376) Homogeneous Time Resolved Fluorescence (HTRF) assay in Jurkat cells. Format: cell-based. As to conditions: Homo sapiens, 30 min pre-treatment, anti-CD3 stimulation 15 min, HTRF, read-out: SLP76 Assay_IC50. The method, then:
Jurkat cells were seeded at 90,000 cells/well in 90 uL of RPMI1640 growth medium containing 10% FBS and incubated at 37° C. with 5% CO2 overnight. The following day, compounds were serially diluted from a 10 mM top dose for an 11-point 3 fold dilution curve in DMSO. Compounds were intermediately diluted 1:100 into growth media prior to diluting 1:10 on cells for final concentration 10 μM to 0.1 nM in 0.1% DMSO. After 30 minutes pre-treatment with compounds, the cells were stimulated using 200 μg/mL of F(ab)2 complexed anti-CD3 (clone UCTH1) for 15 min at 37° C. with 5% CO2. Stimulation was stopped with ice cold PBS and cells were harvested by centrifugation before lysis in Cisbio lysis buffer (Cisbio, Bedford, Mass.). Lysates were transferred to white, low-volume plates containing anti-phospho-SLP-76-Cryptate plus anti-phospho-SLP-76-d2 HTRF antibodies and incubated overnight at room temperature protected from light according to the manufacturer's protocol (Cisbio, Bedford, Mass.). HTRF was measured on a Perkin Elmer Envision and IC50 values were calculated by concentration-response curve fitting utilizing four-parameter nonlinear regression analyses.
Background: TR-FRET usually uses a lanthanide donor and a delayed reading to cut background.

Chain of human full-length recombinant HPK1 (Q92918 whole entry): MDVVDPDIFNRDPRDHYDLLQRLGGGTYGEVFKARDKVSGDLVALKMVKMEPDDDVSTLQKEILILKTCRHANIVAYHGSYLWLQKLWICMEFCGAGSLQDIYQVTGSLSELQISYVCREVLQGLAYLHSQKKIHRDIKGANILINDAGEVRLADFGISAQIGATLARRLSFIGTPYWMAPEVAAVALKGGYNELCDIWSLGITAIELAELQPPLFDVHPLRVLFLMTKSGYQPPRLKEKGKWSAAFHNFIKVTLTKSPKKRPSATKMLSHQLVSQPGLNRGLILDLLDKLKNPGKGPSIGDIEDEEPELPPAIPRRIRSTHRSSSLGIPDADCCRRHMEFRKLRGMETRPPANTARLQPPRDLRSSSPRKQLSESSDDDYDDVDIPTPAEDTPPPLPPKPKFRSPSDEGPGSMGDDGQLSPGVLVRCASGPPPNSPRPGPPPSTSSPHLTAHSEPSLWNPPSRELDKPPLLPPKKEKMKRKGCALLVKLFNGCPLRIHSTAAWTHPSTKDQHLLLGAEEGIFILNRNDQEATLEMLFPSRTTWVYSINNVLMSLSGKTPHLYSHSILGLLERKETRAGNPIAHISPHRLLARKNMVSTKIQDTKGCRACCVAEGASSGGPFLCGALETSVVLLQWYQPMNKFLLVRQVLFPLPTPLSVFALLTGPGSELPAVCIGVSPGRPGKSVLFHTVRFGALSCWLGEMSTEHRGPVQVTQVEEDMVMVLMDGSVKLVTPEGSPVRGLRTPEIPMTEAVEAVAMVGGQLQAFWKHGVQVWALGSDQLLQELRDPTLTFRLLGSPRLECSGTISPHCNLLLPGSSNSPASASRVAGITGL

For `CNCc1nc(N(C)C)cc2c1CN(c1ccc(F)c(-c3cn[nH]c3C(C)C)n1)C2=O` [Example 22, 6-(dimethylamino)-2-{5-fluoro-6-[5-(propan-2-yl)-1H-pyrazol-4-yl]pyridin-2-yl}-4-[(methylamino)methyl]-2,3-dihydro-1H-pyrrolo[3,4-c]pyridin-1-one], the Ki in test [1] came to 0.4 nM. Further, in test [2], the IC50 came out at 105 nM.

With `C[C@H]1COC(=O)N1c1cccc(N2Cc3c(cc(C4CC4)nc3CN)C2=O)n1` [Example 26, 4-(aminomethyl)-6-cyclopropyl-2-{6-[(4S)-4-methyl-2-oxo-1,3-oxazolidin-3-yl]pyridin-2-yl}-2,3-dihydro-1H-pyrrolo[3,4-c]pyridin-1-one], the Ki in test [1] is 0.9 nM. In addition, the IC50 in test [2] was 439 nM.

Consider `CNCc1nc(N2[C@H](C)C[C@H]2C)cc2c1CN(c1cccc(-c3nncn3C(C)C)n1)C2=O` [Example 28, 6-[(2R,4R)-2,4-dimethylazetidin-1-yl]-4-[(methylamino)methyl]-2-{6-[4-(propan-2-yl)-4H-1,2,4-triazol-3-yl]pyridin-2-yl}-2,3-dihydro-1H-pyrrolo[3,4-c]pyridin-1-one], for which the Ki in test [1] was found to be 0.41 nM. Further, the IC50 in test [2] is 119 nM.

Consider `CNCc1nc(C(C)(C)C)cc2c1CN(c1cccc(-c3nncn3C(C)C)n1)C2=O` [Example 29, 6-tert-butyl-4-[(methylamino)methyl]-2-{6-[4-(propan-2-yl)-4H-1,2,4-triazol-3-yl]pyridin-2-yl}-2,3-dihydro-1H-pyrrolo[3,4-c]pyridin-1-one], for which the Ki in test [1] came out at 3.2 nM. Further, the IC50 in test [2] came out at 396 nM.

With `CNCc1nc(C(C)C)cc2c1CN(c1cccc(-c3nncn3C(C)C)n1)C2=O` [Example 30, 4-[(methylamino)methyl]-6-(propan-2-yl)-2-{6-[4-(propan-2-yl)-4H-1,2,4-triazol-3-yl]pyridin-2-yl}-2,3-dihydro-1H-pyrrolo[3,4-c]pyridin-1-one], the Ki in test [1] amounted to 2.1 nM. Besides, the IC50 in test [2] came to 573 nM.

With `C[C@H]1COC(=O)N1c1cccc(N2Cc3c(cc(N(C)C)nc3CN)C2=O)n1` [Example 32, 4-(aminomethyl)-6-(dimethylamino)-2-{6-[(4S)-4-methyl-2-oxo-1,3-oxazolidin-3-yl]pyridin-2-yl}-2,3-dihydro-1H-pyrrolo[3,4-c]pyridin-1-one], in test [1], the Ki is 0.34 nM. For the same compound, the IC50 in test [2] was found to be 210 nM.

Consider `CNCc1nc(N2CCC2)cc2c1CN(c1cccc(N3C(=O)OC[C@@H]3C)n1)C2=O` [Example 33, 6-(azetidin-1-yl)-4-[(methylamino)methyl]-2-{6-[(4S)-4-methyl-2-oxo-1,3-oxazolidin-3-yl]pyridin-2-yl}-2,3-dihydro-1H-pyrrolo[3,4-c]pyridin-1-one], for which the Ki in test [1] was 0.28 nM. Besides, in test [2], the IC50 amounted to 134 nM.

With `CC(C)n1cnnc1-c1cccc(N2Cc3c(cc(N4[C@H](C)C[C@@H]4C)nc3CN)C2=O)n1` [Example 34, 4-(aminomethyl)-6-[(2R,4S)-2,4-dimethylazetidin-1-yl]-2-{6-[4-(propan-2-yl)-4H-1,2,4-triazol-3-yl]pyridin-2-yl}-2,3-dihydro-1H-pyrrolo[3,4-c]pyridin-1-one], the Ki in test [1] is 1.32 nM. In test [2], the IC50 was 379 nM.

`CC(C)c1cnnn1-c1cccc(N2Cc3c(cc(N(C)C)nc3CN)C2=O)n1` [Example 35, 4-(aminomethyl)-6-(dimethylamino)-2-{6-[5-(propan-2-yl)-1H-1,2,3-triazol-1-yl]pyridin-2-yl}-2,3-dihydro-1H-pyrrolo[3,4-c]pyridin-1-one]: in test [1], the Ki was 0.12 nM. In addition, in test [2], the IC50 was found to be 183 nM.

On to `C[C@H]1COC(=O)N1c1cccc(N2Cc3c(cc(C(C)(C)C)nc3CN)C2=O)n1` [Example 36, 4-(aminomethyl)-6-tert-butyl-2-{6-[(4S)-4-methyl-2-oxo-1,3-oxazolidin-3-yl]pyridin-2-yl}-2,3-dihydro-1H-pyrrolo[3,4-c]pyridin-1-one], for which the Ki in test [1] worked out at 5.1 nM. The IC50 in test [2] is 1110 nM.
